In patent US20170189409A1, “MEDICAL USE” (Almirall, S.A., priority 2014, published 2017):

Assays:
[1] = tested on: anti-KLH antibody response; experiment: Primary T-dependent antibody response (TDAR) to KLH in mice; format: in vivo
Protocol: This assay allows a global assessment of the effect of a drug candidate on antigen presentation, helper T lymphocyte function and B lymphocyte dependent antibody production.
In both cases, the administration of the test compound started on the day of sensitization (day +1, KLH 2 mg/mouse, intravenously). […] A possible reason for this discrepancy is that the lymphocyte count of the concurrent vehicle group of the latter study was abnormally lower than usual, which could mask a potential effect of the test compound on this parameter.

[2] = tested on: anti-KLH antibody response; experiment: Secondary TDAR assay to KLH in mice; format: in vivo
Protocol: This assay included two immunizations with KLH separated 15 days apart (50 μg KLH/animal, intraperitoneally) and specific IgG anti-KLH levels were measured on day +11 after the second immunization. Administration of test compound (0.3 and 3 mg/kg) started on the day of second immunization (day +1) and then once daily for the next 9 days.

PI3K p110β = PI3K p110β (Homo sapiens, UniProt P42338); details: compound pre-incubation time of 30 min
Chain of PI3K p110β (P42338 whole entry): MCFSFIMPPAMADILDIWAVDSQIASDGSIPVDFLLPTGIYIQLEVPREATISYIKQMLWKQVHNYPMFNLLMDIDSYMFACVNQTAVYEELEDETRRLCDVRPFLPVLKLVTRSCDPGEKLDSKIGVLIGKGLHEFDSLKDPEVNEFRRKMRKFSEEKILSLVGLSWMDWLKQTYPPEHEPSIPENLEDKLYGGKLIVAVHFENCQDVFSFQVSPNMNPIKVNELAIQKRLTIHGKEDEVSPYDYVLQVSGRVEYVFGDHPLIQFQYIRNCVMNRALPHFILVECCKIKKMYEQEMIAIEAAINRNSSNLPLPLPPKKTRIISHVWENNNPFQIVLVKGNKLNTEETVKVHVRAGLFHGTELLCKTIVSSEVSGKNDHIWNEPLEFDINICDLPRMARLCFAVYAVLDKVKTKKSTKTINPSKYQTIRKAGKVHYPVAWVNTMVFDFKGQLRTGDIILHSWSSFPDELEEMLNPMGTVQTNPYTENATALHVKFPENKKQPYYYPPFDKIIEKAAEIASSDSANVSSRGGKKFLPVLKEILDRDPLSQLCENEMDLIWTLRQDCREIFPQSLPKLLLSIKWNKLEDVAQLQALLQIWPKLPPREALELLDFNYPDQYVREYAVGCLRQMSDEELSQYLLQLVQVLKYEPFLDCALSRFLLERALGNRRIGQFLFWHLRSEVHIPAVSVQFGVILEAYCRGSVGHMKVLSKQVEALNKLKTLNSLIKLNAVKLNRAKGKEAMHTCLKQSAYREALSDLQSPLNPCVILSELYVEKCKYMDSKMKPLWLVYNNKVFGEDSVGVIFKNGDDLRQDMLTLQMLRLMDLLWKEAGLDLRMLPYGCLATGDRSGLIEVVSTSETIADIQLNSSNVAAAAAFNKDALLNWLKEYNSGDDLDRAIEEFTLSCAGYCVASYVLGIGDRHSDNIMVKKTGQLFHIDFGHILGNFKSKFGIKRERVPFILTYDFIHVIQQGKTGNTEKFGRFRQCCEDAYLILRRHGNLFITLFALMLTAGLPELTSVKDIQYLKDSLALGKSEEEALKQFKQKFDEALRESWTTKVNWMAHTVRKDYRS
Chain of PI3K p110β (P27986 whole entry partner): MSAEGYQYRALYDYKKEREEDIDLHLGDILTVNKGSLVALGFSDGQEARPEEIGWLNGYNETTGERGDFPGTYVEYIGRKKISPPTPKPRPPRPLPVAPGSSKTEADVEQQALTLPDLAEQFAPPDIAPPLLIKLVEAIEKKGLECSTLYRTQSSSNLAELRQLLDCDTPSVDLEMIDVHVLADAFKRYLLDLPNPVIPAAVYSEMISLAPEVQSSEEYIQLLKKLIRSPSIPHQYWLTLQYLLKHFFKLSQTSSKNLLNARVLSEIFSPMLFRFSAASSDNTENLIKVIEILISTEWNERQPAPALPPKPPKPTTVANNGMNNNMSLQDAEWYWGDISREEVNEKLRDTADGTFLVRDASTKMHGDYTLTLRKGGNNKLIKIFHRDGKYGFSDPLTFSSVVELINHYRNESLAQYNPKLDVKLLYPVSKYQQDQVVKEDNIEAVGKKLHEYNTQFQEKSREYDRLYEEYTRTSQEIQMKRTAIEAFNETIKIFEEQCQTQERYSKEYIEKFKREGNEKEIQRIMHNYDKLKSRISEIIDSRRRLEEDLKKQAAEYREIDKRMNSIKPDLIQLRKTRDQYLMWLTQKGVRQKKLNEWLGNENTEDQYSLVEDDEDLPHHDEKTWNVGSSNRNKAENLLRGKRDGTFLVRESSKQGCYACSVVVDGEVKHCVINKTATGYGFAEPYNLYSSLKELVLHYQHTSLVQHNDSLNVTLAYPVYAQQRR

[3] = tested on: anti-Dsg3 antibody-induced skin damage; experiment: Neonatal passive transfer model; details: for mice with blisters: 8 mice treated
[4] = tested on: autoantibody-mediated cutaneous lesions; experiment: Immunization-induced mouse model of epidermolysis bullosa acquista (EBA); format: in vivo, B6.SJL-H2s mice; details: for body weight gain: 6 week treatment, LAS191954 3 mg/kg/day, methylprednisolone 20 mg/kg/day
Protocol: Induction of experimental EBA was performed as described in […] et al., J Immunol. 2013; 191:2978-2988. Briefly, 6-10 week B6.SJL-[…] mice were immunized with an emulsion of a recombinant protein encompassing the vWFA2 binding domain of mouse type VII collagen (COL7) in adjuvant (Titermax). After immunization, mice were weekly evaluated for the presence and extend of clinical disease, measured as percentage of body surface affected by skin lesions (erythema, blisters, erosions and crusts). […] Treatments were carried out over a 6-week period, and mice were evaluated for the extend of clinical disease (primary endpoint) weekly. […] For better comparability between experiments, the affected body surface area at weeks 1-6 was related to that at inclusion (set at 1). Body weight was monitored weekly during treatment.

[5] = tested on: anti-Dsg3 and anti-dsDNA autoantibody production; experiment: MRL/lpr mouse spontaneous autoimmune disease model, autoantibody production; format: in vivo
Protocol: The primary endpoint of this study was assessment of autoantibody production, including pemphigus-specific anti-Dsg3 antibodies.
The prednisolone dose was selected based on previous reports and corresponds to a high CS dose in humans.
As autoantibodies develop progressively and may follow a different course in each animal, anti-dsDNA antibody levels were measured on week 12 and used to uniformly distribute animals to dosing groups. At week 13, daily treatments were initiated and continued for 6 weeks. Antibodies to dsDNA and Dsg3 were measured at weeks 12, 15, 17 and 19. Skin lesions were inspected visually throughout the study. Effects on other parameters such as proteinuria, as well as general hematological, serological, and histological signs were evaluated at study completion.

PI3K p110α = PI3K p110α (Homo sapiens, UniProt P42336); details: compound pre-incubation time of 30 min
Chain of PI3K p110α (P42336 whole entry): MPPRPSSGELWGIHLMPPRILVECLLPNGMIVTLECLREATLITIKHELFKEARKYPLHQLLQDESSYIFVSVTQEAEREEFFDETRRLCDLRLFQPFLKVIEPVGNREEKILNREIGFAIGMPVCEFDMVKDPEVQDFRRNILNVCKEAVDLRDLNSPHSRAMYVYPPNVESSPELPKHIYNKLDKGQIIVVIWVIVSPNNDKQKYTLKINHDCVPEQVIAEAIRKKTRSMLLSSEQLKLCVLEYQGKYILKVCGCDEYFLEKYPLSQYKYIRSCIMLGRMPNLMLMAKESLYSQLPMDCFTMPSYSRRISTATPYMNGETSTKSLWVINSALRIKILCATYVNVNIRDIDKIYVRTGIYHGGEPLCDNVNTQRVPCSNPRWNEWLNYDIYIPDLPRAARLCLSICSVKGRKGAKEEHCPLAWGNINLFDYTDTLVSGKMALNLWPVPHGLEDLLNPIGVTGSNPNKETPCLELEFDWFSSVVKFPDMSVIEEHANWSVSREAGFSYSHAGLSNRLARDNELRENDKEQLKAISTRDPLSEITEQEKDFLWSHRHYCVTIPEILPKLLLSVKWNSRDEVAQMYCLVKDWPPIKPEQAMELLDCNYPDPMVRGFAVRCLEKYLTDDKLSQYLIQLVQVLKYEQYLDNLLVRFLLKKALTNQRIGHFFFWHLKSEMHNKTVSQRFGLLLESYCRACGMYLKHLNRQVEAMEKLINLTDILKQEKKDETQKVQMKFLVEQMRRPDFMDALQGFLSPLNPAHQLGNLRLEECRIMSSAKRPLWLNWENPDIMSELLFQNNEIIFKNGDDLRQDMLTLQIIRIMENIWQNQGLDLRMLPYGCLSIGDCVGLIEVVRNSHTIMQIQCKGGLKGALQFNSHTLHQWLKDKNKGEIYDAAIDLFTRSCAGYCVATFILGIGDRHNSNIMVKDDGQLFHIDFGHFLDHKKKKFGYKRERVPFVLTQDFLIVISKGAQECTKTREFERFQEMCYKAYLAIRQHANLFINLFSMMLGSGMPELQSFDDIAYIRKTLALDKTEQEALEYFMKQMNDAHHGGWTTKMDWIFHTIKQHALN
Chain of PI3K p110α (P27986 whole entry partner): as the sequence (P27986 whole entry partner) above

[6] = week 19 versus week 12 (FIG. 3)

SMILES | ID50, primary IgM antibody responses to KLH ([1]; day +5 PI, 4 days of daily treatment, 0.03-10 mg/kg) [mg/kg] | ID50, primary IgG antibody responses to KLH ([1]; day +15 PI, 14-day dosing, 0.03-1 mg/kg) [mg/kg] | lymphocyte count ([1]; primary IgG study) | general health status of the animals ([1]; primary IgM and IgG studies) | WBC counts ([1]; primary IgM study, mainly reduced peripheral blood lymphocytes) | ID50, secondary IgG antibody responses to KLH ([2]; day +11 after second immunization, 0.3 and 3 mg/kg once daily) [mg/kg] | lymphocyte counts ([2]; secondary TDAR, 0.3 and 3 mg/kg) | IC50 (PI3K p110β) [µM] | % with blisters ([3]; PV IgG + LAS191954 1 mg/kg) [%] | mice with blisters ([3]; PV IgG + LAS191954 1 mg/kg) | % with blisters ([3]; PV IgG + LAS191954 10 mg/kg) [%] | mice with blisters ([3]; PV IgG + LAS191954 10 mg/kg) | effect on anti-Dsg3 antibody-induced skin damage ([3]; mouse, in vivo) | body weight gain [4] | overall disease activity, AUC of clinical score ([4]; LAS191954 orally 3 mg/kg/day, 6 weeks, versus vehicle) | ID50, anti-Dsg3 and anti-dsDNA autoantibody production ([5]; Mrl/Lpr model, repeated administration) [mg/kg] | reduction of anti-dsDNA antibody titers [5, 6] [%] | IC50 (PI3K p110α) [µM] | change of anti-dsDNA antibody levels at the end of treatment [5, 6]
C[C@H](Nc1ncnc(N)c1C#N)c1nn2ccc(C#N)c2c(=O)n1-c1ccccc1 [LAS191954, (S)-2-(1-(6-amino-5-cyanopyrimidin-4-ylamino)ethyl)-4-oxo-3-phenyl-3,4-dihydropyrrolo[1,2-f][1,2,4]triazine-5-carbonitrile] | 0.12 | 0.17 | no apparent effect | without apparent effects | lower WBC counts | <0.3 | reduced lymphocyte counts | 0.0942 | 75 | 6 | 100 | 8 | no direct effect | not altered | significant reduction in the accumulative clinical score | <3 | 10 | 8.22 | –
C[C@]12C=CC(=O)C=C1CC[C@@H]1[C@@H]2[C@@H](O)C[C@@]2(C)[C@H]1CC[C@]2(O)C(=O)CO [Prednisolone, prednisolone, reference compound] | – | – | – | – | – | – | – | – | – | – | – | – | – | – | – | – | – | – | doubled
C[C@H]1C[C@@H]2[C@H]([C@@H](O)C[C@@]3(C)[C@H]2CC[C@]3(O)C(=O)CO)[C@@]2(C)C=CC(=O)C=C12 [Methylprednisolone, reference compound] | – | – | – | – | – | – | – | – | – | – | – | – | – | diminished the body weight gain | – | – | – | – | –
